Experimental data taken from patent publication US10849926B2, “GM3-promoted inflammation inhibitor and inflammatory cytokine production inhibitor” (THE NOGUCHI INSTITUTE, priority 2015, dated 2020).

How the values were obtained:
[1] = system: Human peripheral blood-derived monocytes (CD14 positive cells); assay: LPS-dependent inflammatory cytokine production in human peripheral blood-derived monocytes (ELISA); format: cell-based; conditions: LPS 0.125 ng/mL + 1.25, 2.5, or 5.0 μM ganglioside; for production of IL-6 by LPS: 18 hours (FIG. 8); for production of IL-1β by LPS: 18 hours (FIG. 9); for production of TNF-α by LPS: 18 hours (FIG. 10)
Description: (§1) Human peripheral blood-derived monocytes (CD14 positive cells) were cultured in DMEM (Low Glucose) containing 0.5% FCS and 25 ng/mL of granulocyte/macrophage colony stimulating factor, and co-stimulated with 0.125 ng/mL of E. coli-derived lipopolysaccharide (LPS, E. coli O111:B4), and 1.25, 2.5, or 5.0 μM of N-mix (neutral glycosphingolipid mixture (Glc-Cer, Lac-Cer, Gb3, and Gb4)) or each of the ganglioside molecular species. 18 hours later, the inflammatory cytokines (IL-6, IL-1β, and TNF-α) secreted in the culture supernatant were quantitated using the ELISA method.

TLR1 and TLR2 = assay: IL-6 production in human monocytes stimulated with Pam3Csk4 (TLR1 and TLR2 activating factor); format: cell-based; conditions: Pam3Csk4 20 ng/mL, 5 μM GM3 molecular species, 18 hours (FIG. 12)
Description: as §1
(§2) Then, under the same culture conditions as in Example 5, human monocytes were stimulated using any of 0.125 ng/mL of LPS (i.e., TLR4 activating factor), 5.0 μg/mL of high mobility group box 1 (HMGB 1) (i.e., a TLR4 and TLR2 activating factors), 20 ng/mL of Pam3Csk4 (i.e., a TLR1 and TLR2 activating factors), 1.0 ng/mL of MALP-2 (i.e., TLR2 and TLR6 activating factors), 50 ng/mL of Flagellin (i.e., a TLR5 activating factor), and 250 ng/mL of R-848 (i.e., TLR7 and TLR8 activating factors); and 5 μM of GM3 molecular species. 18 hours later, the inflammatory cytokine IL-6 secreted in the culture supernatant was quantitated using the ELISA method.

TLR4 = assay: IL-6 production in human monocytes stimulated with LPS (TLR4 activating factor); format: cell-based; conditions: LPS 0.125 ng/mL, 5 μM GM3 molecular species, 18 hours (FIG. 12)
Description: as §1, §2

TLR4 and TLR2 = assay: IL-6 production in human monocytes stimulated with HMGB1 (TLR4 and TLR2 activating factor); format: cell-based; conditions: HMGB 1 5.0 μg/mL, 5 μM GM3 molecular species, 18 hours (FIG. 12)
Description: as §1, §2

human monocytes = assay: IL-6 production in human monocytes by LPS with or without GM3C22 or GM3C24 (ELISA); format: cell-based; conditions: for production of IL-6 in response to stimulation promoted by the addition of GM3C22 and GM3C24: LPS 0.06 ng/mL + GM3C22 or GM3C24, 18 hours (FIG. 11); for production of IL-6 in response to LPS stimulation: LPS 0.06 ng/mL only, 18 hours (FIG. 11)
Description: as §1
Under the same culture conditions as in Example 5, “GM3C16”, “GM3C18” or “GM3C24:1” which inhibited inflammation was combined to “GM3C22” or “GM3C24” which promoted inflammation. The resultant combination was added to the monocytes and further stimulated with 0.06 ng/mL of LPS (i.e., a TLR4 activating factor). 18 hours later, the inflammatory cytokine IL-6 secreted in the culture supernatant was quantitated using the ELISA method.

[2] = system: Toll-like receptor (TLR) on human monocytes; assay: IL-6 production in human monocytes stimulated with other TLR activating factors (Pam3Csk4, MALP-2, Flagellin, R-848); format: cell-based; conditions: 5 μM GM3 molecular species, 18 hours (FIG. 12)
Description: as §1, §2

RAW 264.7 cells [3] = assay: Cooperative TNF-α production by LPS and GM3 in RAW 264.7 cells (ELISA); format: cell-based, mouse; conditions: LPS 0.5 ng/mL; for TNF-α production by LPS and GM3 on addition of 1 μM or less of ganglioside: 1 μM (GM3 ratio; 10:1) or less, GM3 5.0 μM (FIG. 5); for synergistic increases in productions of TNF-α by GM3 and LPS: glycosphingolipid 0.25 to 1.0 μM
Description: RAW 264.7 cells cultured overnight in DMEM containing 0.5% fetal bovine serum were co-stimulated by each glycosphingolipid (0.25 to 1.0 μM), LPS (0.5 ng/mL), and GM3 (5.0 μM). 18 hours later, the TNF-α in the culture supernatant was quantitated by the ELISA method.

RAW 264.7 cells [4] = assay: LPS-dependent TNF-α production in RAW 264.7 cells (ELISA); format: cell-based, mouse; conditions: for TNF-α production by LPS on addition of 1 μM or less of ganglioside: LPS 2.0 ng/mL (FIG. 4); for TNF-α production by LPS: LPS 0.5 ng/mL + each glycosphingolipid 1.0 μM, 0.5% fetal bovine serum, 18 hours (FIG. 3); for inflammation promoted by LPS (LPS-dependent TNF-α production): LPS 2.0 ng/mL + glycosphingolipid 0.25 to 2.0 μM, 18 hours (FIG. 4)
Description: A serum ganglioside mimic resembling the composition of these gangliosides was used to treat a macrophage-like cultured cell line in which the serum in the medium was removed and reduced: RAW 264.7 cells (0.5% fetal bovine-derived serum). Then, an actual influence on TNF-α production by TLR4 ligand (LPS) stimulation was examined.
RAW 264.7 cells cultured overnight in DMEM containing 0.5% fetal bovine serum were co-stimulated by 0.5 ng/mL of lipopolysaccharide (LPS) and ganglioside (serum ganglioside mimic) at a concentration resembling the composition of serum ganglioside. 18 hours later, the TNF-α in the culture supernatant was quantitated by an ELISA method.
RAW 264.7 cells cultured overnight in DMEM containing 0.5% fetal bovine serum were co-stimulated by LPS (0.5 ng/mL) and each glycosphingolipid (1.0 μM). 18 hours later, the TNF-α in the culture supernatant was quantitated by the ELISA method.
RAW 264.7 cells cultured overnight in DMEM containing 0.5% fetal bovine serum were co-stimulated by LPS (2.0 ng/mL) and each glycosphingolipid (0.25 to 2.0 μM). 18 hours later, the TNF-α in the culture supernatant was quantitated by the ELISA method.

[5] = system: bone marrow-derived macrophages (BMDMs); assay: Cooperative TNF-α production by LPS and GM3 in bone marrow-derived macrophages (ELISA); format: cell-based, mouse; conditions: LPS 0.5 ng/mL, GM3 10 μM, glycosphingolipid 10 μM, 18 hours (FIG. 7)
Description: (§3) Bone marrow-derived cells harvested from the femur and tibia of C57/BL6 mice were induced to differentiate for one week using 20 ng/mL of recombinant macrophage colony-stimulating factor (M-CSF). The obtained bone marrow-derived macrophages (BMDMs) were cultured overnight in DMEM containing 0.5% fetal bovine serum and co-stimulated with LPS (0.5 ng/mL), GM3 (10 μM), and each glycosphingolipid (10 μM). After 18 hours, the TNF-α in the culture supernatant was quantified by the ELISA method.

[6] = system: bone marrow-derived macrophages (BMDMs); assay: LPS-dependent TNF-α production in bone marrow-derived macrophages (ELISA); format: cell-based, mouse; conditions: LPS 0.5 ng/mL + glycosphingolipid 10 μM, 18 hours (FIG. 6)
Description: as §3, with “ng/mL)” for “ng/mL), GM3 (10 μM),”, “μM).” for “μM). After”, “hours later,” for “hours,”, “quantitated” for “quantified”

Row | Molecule | production of IL-6 by LPS [1] | production of IL-1β by LPS [1] | production of TNF-α by LPS [1] | IL-6 production by Pam3Csk4 (TLR1 and TLR2) | IL-6 production by LPS (TLR4) | IL-6 production by HMGB1 (TLR4 and TLR2) | production of IL-6 in response to stimulation promoted by the addition of GM3C22 and GM3C24 (human monocytes) | production of IL-6 in response to LPS stimulation (human monocytes) | IL-6 production in other TLR activating factors [2] | TNF-α production by LPS and GM3 on addition of 1 μM or less of ganglioside (RAW 264.7 cells [3]) | synergistic increases in productions of TNF-α by GM3 and LPS (RAW 264.7 cells [3]; GM3 5.0 μM, 18 hours (FIG. 5)) | TNF-α production by LPS on addition of 1 μM or less of ganglioside (RAW 264.7 cells [4]) | TNF-α production by LPS (RAW 264.7 cells [4]) | inflammation promoted by LPS (LPS-dependent TNF-α production) (RAW 264.7 cells [4]) | cooperative TNF-α production by LPS and GM3 in bone marrow-derived macrophages [5] | LPS-dependent TNF-α production in bone marrow-derived macrophages [6] | IC50 (RAW 264.7 cells [3]; TNF-α production, GM3 5.0 μM, 18 hours (FIG. 5), read-out: 50% inhibitory concentration for cooperative activation of LPS and GM3)
1 | CCCCCCCCCCCCCC=CC(O)C(COC1OC(CO)C(OC2OC(CO)C(O)C(OC3(C(=O)O)CC(O)C(NC(C)=O)C(C(O)C(O)CO)O3)C2O)C(O)C1O)NC(=O)CCCCCCCCCCCCCCC (centres unmarked) [GM3C16] | inhibiting | inhibiting | inhibiting | inhibitory action was also observed | inhibitory action | inhibitory action | strongly inhibited | strongly inhibited | – | – | – | – | – | – | – | – | –
2 | CCCCCCCCCCCCCC=CC(O)C(COC1OC(CO)C(OC2OC(CO)C(O)C(OC3(C(=O)O)CC(O)C(NC(C)=O)C(C(O)C(O)CO)O3)C2O)C(O)C1O)NC(=O)CCCCCCCCCCCCCCCCC (centres unmarked) [GM3C18] | inhibiting | inhibiting | inhibiting | inhibitory action was also observed | inhibitory action | inhibitory action | strongly inhibited | strongly inhibited | – | – | – | – | – | – | – | – | –
3 | CCCCCCCCCCCCCC=CC(O)C(COC1OC(CO)C(OC2OC(CO)C(O)C(OC3(C(=O)O)CC(O)C(NC(C)=O)C(C(O)C(O)CO)O3)C2O)C(O)C1O)NC(=O)CCCCCCCCCCCCCCCCCCCCC (centres unmarked) [GM3C22, reference compound] | significantly enhanced | significantly enhanced | significantly enhanced | – | selectively increased | selectively increased | – | – | no increase | – | – | – | – | – | – | – | –
4 | CCCCCCCCCCCCCC=CC(O)C(COC1OC(CO)C(OC2OC(CO)C(O)C(OC3(C(=O)O)CC(O)C(NC(C)=O)C(C(O)C(O)CO)O3)C2O)C(O)C1O)NC(=O)CCCCCCCCCCCCCCCCCCCCCCC (centres unmarked) [GM3C24, reference compound] | significantly enhanced | significantly enhanced | significantly enhanced | – | selectively increased | selectively increased | – | – | no increase | – | – | – | – | – | – | – | –
5 | CCCCCCCCC=CCCCCCCCCCCCCCC(=O)NC(COC1OC(CO)C(OC2OC(CO)C(O)C(OC3(C(=O)O)CC(O)C(NC(C)=O)C(C(O)C(O)CO)O3)C2O)C(O)C1O)C(O)C=CCCCCCCCCCCCCC (centres unmarked) [GM3C24:1] | inhibiting | inhibiting | inhibiting | inhibitory action was also observed | inhibitory action | inhibitory action | strongly inhibited | strongly inhibited | – | – | – | – | – | – | – | – | –
6 | CCCCCCCCCCCCCC=CC(O)C(COC1OC(CO)C(OC2OC(CO)C(O)C(OC3(C(=O)O)CC(O)C(NC(C)=O)C(C(O)C(O)CO)O3)C2O)C(O)C1O)NC(=O)C(O)CCCCCCCCCCCCCCCCCCCCCC (centres unmarked) [GM3hC24, reference compound] | significantly enhanced | significantly enhanced | significantly enhanced | – | selectively increased | selectively increased | – | – | no increase | – | – | – | – | – | – | – | –
7 | GD1a | – | – | – | – | – | – | – | – | – | almost completely inhibited | inhibited in a concentration-dependent manner | almost completely inhibited | strongly inhibited | inhibited in a concentration-dependent manner | strongly inhibited | inhibited | –
8 | GD1b | – | – | – | – | – | – | – | – | – | almost completely inhibited | inhibited in a concentration-dependent manner | almost completely inhibited | significantly strongly inhibited | inhibited in a concentration-dependent manner | strongly inhibited | inhibited | –
9 | GT1b | – | – | – | – | – | – | – | – | – | almost completely inhibited | inhibited in a concentration-dependent manner | almost completely inhibited | significantly strongly inhibited | inhibited in a concentration-dependent manner | strongly inhibited | inhibited | 0.25 µM
10 | α-Neu5Ac-(2-3)β-Gal-(1-4)-β-Glc-(1-1)-ceramide [GM3, reference compound] | – | – | – | – | – | – | – | – | – | – | – | – | significantly increased | – | – | – | –
